Results on one compound are retold here after patent US20250352615A1, “COMPOSITIONS AND METHODS FOR THE MODULATION OF PIEZO1 AND TRPV4” (Duke University, priority 2021, published 2025).

A value given as a limit tells only on which side of the number the result lay.

This assay concerns pancreatic acini. The assay is described as follows: Mitochondrial depolarization in pancreatic acini (TMRE). It counts as cell-based, mouse. The note with it: Yoda1 50 μM. Here is the method: Live-cell mitochondrial depolarization was analyzed using the mitochondrial labeling dye, TMRE. Isolated acini were plated on a thin-layered, Matrigel-coated, glass-bottom culture plate with DMEM/F12 and 10% FBS media and placed in a CO2 incubator for 1 hr at 37° C. After 1 hr, the acini were incubated with TMRE (200 nM) in the bath buffer containing 140 mM NaCl, 4.7 mM KCl, 2.0 CaCl2, 1 mM MgCl2, 10 mM HEPES, and 10 mM glucose (pH adjusted to 7.4 with NaOH) for 30 minutes. The TMRE dye was washed and replaced with fresh bath buffer. The images were captured with a Zeiss Axio observer Z1 microscope with MetaMorph software (Molecular Devices) at intervals of 600 ms. TMRE was excited at 540-600 nm and emission collected at 585-675 nm. Carbonyl cyanide 4-(trifluoromethoxy) phenylhydrazone (FCCP), which uncouples the oxidative phosphorylation process and depolarizes mitochondria, was used as a positive control. A maximum of 2 mitochondrial puncta were taken per acinar cell.

In the case of `Clc1cccc(Cl)c1CSc1nnc(-c2cnccn2)s1` [Yoda1], the “mitochondrial depolarization in Piezo1aci-KO cells” value was “did not depolarize mitochondria” and the “rate of mitochondrial depolarization compared with CCK (10 nM)” value is on record as “occurred at a higher rate than that induced with CCK”. The “TMRE fluorescence intensity (mitochondrial depolarization)” value (WT acini) is given as “significantly decreased TMRE fluorescence intensity”. The “time to mitochondrial depolarization after application” value (CCK 10 nM) is at most 3 min.
